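96-well plates; 48 h exposure; 5 concentrations. Endpoints by linear interpolation between flanking doses. Not reached: highest tested concentration assigned. At the GI50, growth is halved.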 Activity calls are given as the source filed them. Rule as the data show it: active = GI50 up to about 1.1 µM and inactive = higher.
Columns and labels:
Test in all cases: DTP human tumour cell line panel, 48 h
IGROV-1 = system: IGROV-1
NCI-H522 = system: NCI-H522
MDA-MB-435 = system: MDA-MB-435
PC-3 = system: PC-3
RPMI-8226 = system: RPMI-8226
ACHN = system: ACHN
A498 = system: A498
UO-31 = system: UO-31
SK-MEL-5 = system: SK-MEL-5
DU-145 = system: DU-145
Malme-3M = system: Malme-3M
T47D = system: T47D
SNB-75 = system: SNB-75
NCI/ADR-RES = system: NCI/ADR-RES
UACC-62 = system: UACC-62
HCT-116 = system: HCT-116
LOX IMVI = system: LOX IMVI
SK-OV-3 = system: SK-OV-3
NCI-H460 = system: NCI-H460
MCF7 = system: MCF7

SMILES	GI50 (IGROV-1)	GI50 (NCI-H522)	GI50 (MDA-MB-435)	GI50 (PC-3)	GI50 (RPMI-8226)	GI50 (ACHN)	GI50 (A498)	GI50 (UO-31)	GI50 (SK-MEL-5)	GI50 (DU-145)	GI50 (Malme-3M)	GI50 (T47D)	GI50 (SNB-75)	GI50 (NCI/ADR-RES)	GI50 (UACC-62)	GI50 (HCT-116)	GI50 (LOX IMVI)	GI50 (SK-OV-3)	GI50 (NCI-H460)	GI50 (MCF7)
O=S(=O)(O)c1ccc(/N=N\c2c(O)ccc3cc(Br)ccc23)cc1	> 100 µM (inactive)	> 100 µM (inactive)	> 100 µM (inactive)	> 100 µM (inactive)	> 100 µM (inactive)	> 100 µM (inactive)	> 100 µM (inactive)	> 100 µM (inactive)	> 100 µM (inactive)	> 100 µM (inactive)	> 100 µM (inactive)	> 100 µM (inactive)	> 100 µM (inactive)	> 100 µM (inactive)	> 100 µM (inactive)	> 100 µM (inactive)	> 100 µM (inactive)	> 100 µM (inactive)	–	–
Cc1ccc(S(=O)(=O)NC(=O)NCC(N)=O)cc1	> 100 µM (inactive)	> 100 µM (inactive)	–	> 100 µM (inactive)	> 100 µM (inactive)	> 100 µM (inactive)	–	> 100 µM (inactive)	> 100 µM (inactive)	> 100 µM (inactive)	> 100 µM (inactive)	> 100 µM (inactive)	> 100 µM (inactive)	> 100 µM (inactive)	> 100 µM (inactive)	> 100 µM (inactive)	> 100 µM (inactive)	> 100 µM (inactive)	> 100 µM (inactive)	> 100 µM (inactive)
N[C@H]1CCc2c1nc1c(c2-c2ccccc2)CC[C@@H]1N	14.7 µM (inactive)	16.2 µM (inactive)	15.8 µM (inactive)	15.3 µM (inactive)	34.4 µM (inactive)	40.1 µM (inactive)	–	–	15.9 µM (inactive)	24.2 µM (inactive)	16.7 µM (inactive)	–	11.9 µM (inactive)	46.9 µM (inactive)	–	18.1 µM (inactive)	14 µM (inactive)	–	25.6 µM (inactive)	21.8 µM (inactive)
Nc1nc2ncc(SCc3ccc(C(=O)NC(CCC(=O)O)C(=O)O)cc3)cc2c(=O)[nH]1 (stereo unspecified)	> 100 µM (inactive)	> 100 µM (inactive)	> 100 µM (inactive)	> 100 µM (inactive)	19.4 µM (inactive)	> 100 µM (inactive)	> 100 µM (inactive)	> 100 µM (inactive)	> 100 µM (inactive)	> 100 µM (inactive)	> 100 µM (inactive)	–	–	> 100 µM (inactive)	> 100 µM (inactive)	> 100 µM (inactive)	> 100 µM (inactive)	> 100 µM (inactive)	> 100 µM (inactive)	> 100 µM (inactive)
CCOC(=O)c1cc(-c2ccc(OC)cc2)c([N+](=O)[O-])[nH]1	> 10 µM (inactive)	9.82 µM (inactive)	> 5.01 µM (inactive)	> 10 µM (inactive)	–	> 10 µM (inactive)	> 10 µM (inactive)	> 10 µM (inactive)	7.67 µM (inactive)	> 10 µM (inactive)	> 10 µM (inactive)	–	> 10 µM (inactive)	–	7.78 µM (inactive)	> 10 µM (inactive)	–	> 10 µM (inactive)	> 10 µM (inactive)	> 10 µM (inactive)
C=C1C[C@]23CC[C@@H]4C(CO)(CO)CC(=O)C[C@]4(C)[C@@H]2C(O)C[C@H]1C3 (stereo partly specified)	> 100 µM (inactive)	> 100 µM (inactive)	> 100 µM (inactive)	> 100 µM (inactive)	> 100 µM (inactive)	> 100 µM (inactive)	–	> 100 µM (inactive)	–	> 100 µM (inactive)	> 100 µM (inactive)	–	> 100 µM (inactive)	> 100 µM (inactive)	> 100 µM (inactive)	> 100 µM (inactive)	> 100 µM (inactive)	> 100 µM (inactive)	> 100 µM (inactive)	> 100 µM (inactive)
CC(C)=CCC\C(C)=C/C=C/C(C)=C\C=C\C(C)=C/C=C/C=C(C)\C=C\C=C(C)/C=C/C=C(/C)CCC=C(C)C	> 100 µM (inactive)	–	> 100 µM (inactive)	> 100 µM (inactive)	–	> 100 µM (inactive)	> 100 µM (inactive)	> 100 µM (inactive)	> 100 µM (inactive)	> 100 µM (inactive)	> 100 µM (inactive)	–	> 100 µM (inactive)	> 100 µM (inactive)	> 100 µM (inactive)	> 100 µM (inactive)	> 100 µM (inactive)	> 100 µM (inactive)	–	> 100 µM (inactive)
CNc1nc(OC)c2c(n1)n(C)c[n+]2C [HETEROMINE B]	> 100 µM (inactive)	31.7 µM (inactive)	> 100 µM (inactive)	> 100 µM (inactive)	> 100 µM (inactive)	> 100 µM (inactive)	> 100 µM (inactive)	> 100 µM (inactive)	> 100 µM (inactive)	> 100 µM (inactive)	> 100 µM (inactive)	> 100 µM (inactive)	> 100 µM (inactive)	> 100 µM (inactive)	> 100 µM (inactive)	> 100 µM (inactive)	> 100 µM (inactive)	> 100 µM (inactive)	> 100 µM (inactive)	–
C1CN1c1nc(N2CC2)nc(N2CC2)n1	14.2 µM (inactive)	5.21 µM (inactive)	12.6 µM (inactive)	12.3 µM (inactive)	12.5 µM (inactive)	0.944 µM (active)	9.95 µM (inactive)	7.36 µM (inactive)	6.19 µM (inactive)	2.78 µM (inactive)	11.7 µM (inactive)	–	5.66 µM (inactive)	5.42 µM (inactive)	1.84 µM (inactive)	8.55 µM (inactive)	3.08 µM (inactive)	8.87 µM (inactive)	0.41 µM (active)	2.16 µM (inactive)
O=C(NCCC1CN(C(=O)OCc2ccccc2)c2ccccc21)OCc1ccccc1 (stereo unspecified)	> 100 µM (inactive)	90.6 µM (inactive)	> 100 µM (inactive)	> 100 µM (inactive)	> 100 µM (inactive)	> 100 µM (inactive)	> 100 µM (inactive)	> 100 µM (inactive)	> 100 µM (inactive)	> 100 µM (inactive)	> 100 µM (inactive)	–	> 100 µM (inactive)	> 100 µM (inactive)	> 100 µM (inactive)	71.9 µM (inactive)	–	> 100 µM (inactive)	96.8 µM (inactive)	60.4 µM (inactive)
CC(C)C(=O)[C@@]1(C)SC[C@H]2CCN=C21	> 100 µM (inactive)	52 µM (inactive)	25.1 µM (inactive)	–	> 100 µM (inactive)	> 100 µM (inactive)	34.4 µM (inactive)	58.6 µM (inactive)	> 100 µM (inactive)	> 100 µM (inactive)	46.7 µM (inactive)	–	–	> 100 µM (inactive)	41.4 µM (inactive)	> 100 µM (inactive)	> 100 µM (inactive)	> 100 µM (inactive)	> 100 µM (inactive)	> 100 µM (inactive)

— ChEMBL document CHEMBL1201862, “PubChem BioAssay data set” (2004)
